Experimental data published in patent publication US11053241B2, “TYK2 inhibitors and uses thereof” (Nimbus Lakshmi, Inc., priority 2018, dated 2021).

Experiments:
TYK2 kinase domain (JH1) = TYK2 kinase domain (JH1) (Homo sapiens (Human), UniProt P29597); assay: TYK2 Radioactive Kinase Assay; type: biochemical; conditions: compound at 10 μM; ATP at 10 μM; 120 min at room temp
Description: (§1) Peptide substrate, [KKSRGDYMTMQIG], (20 μM) was prepared in reaction buffer (20 mM Hepes pH 7.5, 10 mM MgCl2, 1 mM EGTA, 0.02% Brij35, 0.02 mg/mL BSA, 0.1 mM […], 2 mM DTT, 1% DMSO). TYK2 (Invitrogen) kinase was added, followed by compounds in DMSO. ^33PATP was added to initiate the reaction in ATP at 10 μM. The kinase reaction was incubated for 120 min at room temp and reactions were spotted onto P81 ion exchange paper (Whatman #3698-915), and then washed extensively in 0.75% phosphoric acid, prior to reading the radioactivity counts. For JAK2 (Invitrogen) kinase assay the peptide substrate poly[Glu:Tyr](4:1), 0.2 mg/ml was used, in the reaction carried out the same as for TYK2.
(§2) The TYK2 and JAK2 radioactive kinase assay measures the percent inhibition at the TYK2 kinase domain (JH1) and the percent inhibition at the JAK2 kinase domain (JH1). Results of the assay are expressed as percent inhibition at 10 μM.

[1] = target: human TYK2 (JH2domain-pseudokinase) (Homo sapiens (Human), UniProt P29597); assay: TYK2 JH2 Domain Binding Assay (KINOMEscan); conditions: 11-point 3-fold dilution, top concentration 30,000 nM, duplicate
Sequence of human TYK2 (JH2domain-pseudokinase) (P29597 556-888): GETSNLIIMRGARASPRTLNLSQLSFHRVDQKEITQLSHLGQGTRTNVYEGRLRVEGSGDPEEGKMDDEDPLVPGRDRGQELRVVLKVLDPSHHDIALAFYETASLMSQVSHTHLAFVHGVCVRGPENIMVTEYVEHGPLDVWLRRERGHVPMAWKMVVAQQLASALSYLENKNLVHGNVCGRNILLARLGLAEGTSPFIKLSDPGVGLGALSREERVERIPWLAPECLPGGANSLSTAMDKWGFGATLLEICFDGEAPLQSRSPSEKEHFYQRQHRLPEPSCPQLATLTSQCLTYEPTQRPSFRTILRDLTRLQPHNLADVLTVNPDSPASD
Outline: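 Competition binding used an NFkB-DNA-tagged fusion of TYK2 JH2 (G556–D888) expressed in HEK293 extracts against an immobilised ligand, 1 h at room temperature. Bead-bound kinase was quantified by qPCR. Kd came from an 11-point 3-fold series with a 30,000 nM top concentration and 0.9% DMSO, Hill slope −1, run in duplicate.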

JAK2 kinase domain (JH1) = JAK2 kinase domain (JH1) (Homo sapiens (Human), UniProt O60674); assay: JAK2 Radioactive Kinase Assay; type: biochemical; conditions: compound at 10 μM; ATP at 10 μM; substrate poly[Glu:Tyr](4:1)
Sequence of JAK2 kinase domain (JH1) (O60674 849-1124): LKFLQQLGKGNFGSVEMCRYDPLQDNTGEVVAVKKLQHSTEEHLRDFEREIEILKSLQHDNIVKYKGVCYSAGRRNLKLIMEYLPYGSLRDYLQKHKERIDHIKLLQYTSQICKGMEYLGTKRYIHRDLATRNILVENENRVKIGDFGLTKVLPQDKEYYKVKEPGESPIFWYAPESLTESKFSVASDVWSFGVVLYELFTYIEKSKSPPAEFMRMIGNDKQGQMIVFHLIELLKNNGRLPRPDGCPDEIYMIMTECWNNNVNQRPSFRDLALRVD
Description: as §1, §2

Sequence of TYK2 kinase domain (JH1) (P29597 897-1176): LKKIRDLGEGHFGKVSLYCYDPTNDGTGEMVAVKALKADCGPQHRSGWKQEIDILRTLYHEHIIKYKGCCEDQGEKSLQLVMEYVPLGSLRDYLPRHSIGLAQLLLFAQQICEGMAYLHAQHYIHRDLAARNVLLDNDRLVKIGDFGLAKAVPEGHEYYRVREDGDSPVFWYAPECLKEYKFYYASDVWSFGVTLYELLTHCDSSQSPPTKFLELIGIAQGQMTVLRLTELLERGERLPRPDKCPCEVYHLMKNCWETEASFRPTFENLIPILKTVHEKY

SMILES	inhibition at 10 µM (TYK2 kinase domain (JH1)) [%]	Kd [1] [nM]	inhibition at 10 µM (JAK2 kinase domain (JH1)) [%]
CNC(=O)c1cnc(NC(=O)C2CC2)c2[nH]c(-c3cc(-c4nccs4)ccn3)cc12 [Compound I-14, 7-(cyclopropanecarboxamido)-N-methyl-2-(4-(thiazol-2-yl)pyridin-2-yl)-1H-pyrrolo[2,3-c]pyridine-4-carboxamide]	< 50	0.2 to 1	< 50
CNC(=O)c1cnc(NC(=O)C2CC2)c2[nH]c(-c3cc(-c4ncco4)ccn3)cc12 [Compound I-15, 7-(cyclopropanecarboxamido)-N-methyl-2-(4-(oxazol-2-yl)pyridin-2-yl)-1H-pyrrolo[2,3-c]pyridine-4-carboxamide]	< 50	0.2 to 1	< 50
[2H]C([2H])([2H])NC(=O)c1cnc(NC(=O)C2CC2)c2[nH]c(-c3cc(-c4ncn(C)n4)ccn3)cc12 [Compound I-16, 7-(cyclopropanecarboxamido)-N-(methyl-d3)-2-(4-(1-methyl-1H-1,2,4-triazol-3-yl)pyridin-2-yl)-1H-pyrrolo[2,3-c]pyridine-4-carboxamide]	< 50	< 0.2	< 50
CNC(=O)c1cnc(NC(=O)C2CC2)c2[nH]c(-c3cc(-n4ccc(C)n4)ccn3)cc12 [Compound I-17, 7-(cyclopropanecarboxamido)-N-methyl-2-(4-(3-methyl-1H-pyrazol-1-yl)pyridin-2-yl)-1H-pyrrolo[2,3-c]pyridine-4-carboxamide]	< 50	0.2 to 1	< 50
CNC(=O)c1cnc(NC(=O)C2CC2)c2[nH]c(-c3cccc(-n4cnnc4)c3)cc12 [Compound I-18, 2-(3-(4H-1,2,4-triazol-4-yl)phenyl)-7-(cyclopropanecarboxamido)-N-methyl-1H-pyrrolo[2,3-c]pyridine-4-carboxamide]	< 50	0.2 to 1	< 50
CNC(=O)c1cnc(NC(=O)C2CC2)c2[nH]c(-c3ccc4cn(C5CC5)nc4c3)cc12 [Compound I-20, 7-(cyclopropanecarboxamido)-2-(2-cyclopropyl-2H-indazol-6-yl)-N-methyl-1H-pyrrolo[2,3-c]pyridine-4-carboxamide]	< 50	0.2 to 1	< 50
CNC(=O)c1cnc(NC(=O)C2CC2)c2[nH]c(-c3ccc4ccn(C)c4c3F)cc12 [Compound I-21, 7-(cyclopropanecarboxamido)-2-(7-fluoro-1-methyl-1H-indol-6-yl)-N-methyl-1H-pyrrolo[2,3-c]pyridine-4-carboxamide]	< 50	< 0.2	< 50
CNC(=O)c1cnc(NC(=O)C2CC2)c2[nH]c(-c3cccc(N4CCOCC4)c3F)cc12 [Compound I-22, 7-(cyclopropanecarboxamido)-2-(2-fluoro-3-morpholinophenyl)-N-methyl-1H-pyrrolo[2,3-c]pyridine-4-carboxamide]	< 50	< 0.2	< 50
CNC(=O)c1cnc(NC(=O)C2CC2)c2[nH]c(-c3ccc(C(=O)N4CCCC4)cc3OC)cc12 [Compound I-25, 7-(cyclopropanecarboxamido)-2-(2-methoxy-4-(pyrrolidine-1-carbonyl)phenyl)-N-methyl-1H-pyrrolo[2,3-c]pyridine-4-carboxamide]	< 50	< 0.2	< 50
CNC(=O)c1cnc(NC(=O)C2CC2)c2[nH]c(-c3ccc(N4CCCC4=O)cc3OC)cc12 [Compound I-26, 7-(cyclopropanecarboxamido)-2-(2-methoxy-4-(2-oxopyrrolidin-1-yl)phenyl)-N-methyl-1H-pyrrolo[2,3-c]pyridine-4-carboxamide]	< 50	< 0.2	< 50
CNC(=O)c1cnc(NC(=O)C2CC2)c2[nH]c(-c3cccc(-c4cnc(C)cn4)c3)cc12 [Compound I-27, 7-(cyclopropanecarboxamido)-N-methyl-2-(3-(5-methylpyrazin-2-yl)phenyl)-1H-pyrrolo[2,3-c]pyridine-4-carboxamide]	< 50	< 0.2	< 50
CNC(=O)c1cnc(NC(=O)C2CC2)c2[nH]c(-c3cccc(-c4nc(C)n(C)n4)c3)cc12 [Compound I-28, 7-(cyclopropanecarboxamido)-2-(3-(1,5-dimethyl-1H-1,2,4-triazol-3-yl)phenyl)-N-methyl-1H-pyrrolo[2,3-c]pyridine-4-carboxamide]	< 50	0.2 to 1	< 50
CNC(=O)c1ccc(-c2cc3c(C(=O)NC)cnc(NC(=O)C4CC4)c3[nH]2)c(OC)c1 [Compound I-29, 7-(cyclopropanecarboxamido)-2-(2-methoxy-4-(methylcarbamoyl)phenyl)-N-methyl-1H-pyrrolo[2,3-c]pyridine-4-carboxamide]	< 50	0.2 to 1	< 50
CNC(=O)CCCNc1ccc(-c2cc3c(C(=O)NC)cnc(NC(=O)C4CC4)c3[nH]2)c(OC)c1 [Compound I-30, 7-(cyclopropanecarboxamido)-2-(2-methoxy-4-((4-(methylamino)-4-oxobutyl)amino)phenyl)-N-methyl-1H-pyrrolo[2,3-c]pyridine-4-carboxamide]	< 50	< 0.2	< 50
CCn1cc(-c2cc3c(C(=O)NC)cnc(NC(=O)C4CC4)c3[nH]2)ccc1=O [Compound I-31, 7-(cyclopropanecarboxamido)-2-(1-ethyl-6-oxo-1,6-dihydropyridin-3-yl)-N-methyl-1H-pyrrolo[2,3-c]pyridine-4-carboxamide]	< 50	1 to 10	< 50
CNC(=O)c1cnc(NC(=O)C2CC2)c2[nH]c(-c3cccc(-c4ncn(C)n4)n3)cc12 [Compound I-32, 7-(cyclopropanecarboxamido)-N-methyl-2-(6-(1-methyl-1H-1,2,4-triazol-3-yl)pyridin-2-yl)-1H-pyrrolo[2,3-c]pyridine-4-carboxamide]	< 50	0.2 to 1	< 50
CCOc1ncccc1-c1cc2c(C(=O)NC)cnc(NC(=O)C3CC3)c2[nH]1 [Compound I-33, 7-(cyclopropanecarboxamido)-2-(2-ethoxypyridin-3-yl)-N-methyl-1H-pyrrolo[2,3-c]pyridine-4-carboxamide]	< 50	0.2 to 1	< 50
CNC(=O)c1cnc(NC(=O)C2CC2)c2[nH]c(-c3cccnc3OC3CC3)cc12 [Compound I-34, 7-(cyclopropanecarboxamido)-2-(2-cyclopropoxypyridin-3-yl)-N-methyl-1H-pyrrolo[2,3-c]pyridine-4-carboxamide]	< 50	< 0.2	< 50
[2H]C([2H])([2H])NC(=O)c1cnc(NC(=O)C2CC2)c2[nH]c(-c3cccc(-c4ncn(C)n4)n3)cc12 [Compound I-35, 7-(cyclopropanecarboxamido)-N-(methyl-d3)-2-(6-(1-methyl-1H-1,2,4-triazol-3-yl)pyridin-2-yl)-1H-pyrrolo[2,3-c]pyridine-4-carboxamide]	< 50	0.2 to 1	< 50
CNC(=O)c1cnc(NC(=O)C2CC2)c2[nH]c(-c3cccc(-c4ncn(C)n4)c3F)cc12 [Compound I-36, 7-(cyclopropanecarboxamido)-2-(2-fluoro-3-(1-methyl-1H-1,2,4-triazol-3-yl)phenyl)-N-methyl-1H-pyrrolo[2,3-c]pyridine-4-carboxamide]	< 50	< 0.2	< 50
CCOc1ncc(-c2ccn(C)n2)cc1-c1cc2c(C(=O)NC)cnc(NC(=O)C3CC3)c2[nH]1 [Compound I-37, 7-(cyclopropanecarboxamido)-2-(2-ethoxy-5-(1-methyl-1H-pyrazol-3-yl)pyridin-3-yl)-N-methyl-1H-pyrrolo[2,3-c]pyridine-4-carboxamide]	< 50	1 to 10	< 50
CNC(=O)c1cnc(NC(=O)C2CC2)c2[nH]c(-c3cc(-c4ccn(C)n4)cnc3OC3CC3)cc12 [Compound I-38, 7-(cyclopropanecarboxamido)-2-(2-cyclopropoxy-5-(1-methyl-1H-pyrazol-3-yl)pyridin-3-yl)-N-methyl-1H-pyrrolo[2,3-c]pyridine-4-carboxamide]	< 50	1 to 10	< 50
CNC(=O)c1cnc(NC(=O)C2CC2)c2[nH]c(-c3cc(-c4nccs4)cnc3OC3CC3)cc12 [Compound I-39, 7-(cyclopropanecarboxamido)-2-(2-cyclopropoxy-5-(thiazol-2-yl)pyridin-3-yl)-N-methyl-1H-pyrrolo[2,3-c]pyridine-4-carboxamide]	< 50	1 to 10	< 50
